In the supplement of paper PMC10307832 one finds relative viability data, which are given here for five molecules.

For the first assay, the system named is LC-2-ad. The assay can be described thus: relative viability (nuclei count vs DMSO), 5 days (fraction); higher = more cells survive. The note with it: first compound 8 µM. Put shortly:
(§1)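 Relative viability equals treated-well nuclei counts divided by vehicle-well nuclei counts. Counts came from 4× images of lung cancer cell lines grown in 1536-well plates for 5 days after pin-tool dosing on the day after seeding. Dosing used one drug alone or a fixed anchor-drug dose plus five library-drug doses (not always all listed) in √10 steps, and values are medians of duplicate plates.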
The molecule `CCCCCCCCCCCC1=C(O)C(=O)C=C(O)C1=O` [Embelin] + CS(=O)(=O)N1CCN(Cc2cc3nc(-c4cccc5[nH]ncc45)nc(N4CCOCC4)c3s2)CC1 [Pictilisib] (partner 1 µM) yielded a relative viability of 0.392.

`CCCCCCCCCCCC1=C(O)C(=O)C=C(O)C1=O` [Embelin] + C[C@@H](Oc1cc(-c2cnn(C3CCNCC3)c2)cnc1N)c1c(Cl)ccc(F)c1Cl [Crizotinib] (partner 1 µM) yielded a relative viability of 0.427.

A further assay has as its system NCI-H1792. Described as above. Particulars: first compound 0.08 µM. Put shortly:
as §1
In turn, `CCCCCCCCCCCC1=C(O)C(=O)C=C(O)C1=O` [Embelin] + CS(=O)(=O)N1CCN(Cc2cc3nc(-c4cccc5[nH]ncc45)nc(N4CCOCC4)c3s2)CC1 [Pictilisib] (partner 1 µM) registered a relative viability of 0.299.

Take `CCCCCCCCCCCC1=C(O)C(=O)C=C(O)C1=O` [Embelin] + C[C@@H](Oc1cc(-c2cnn(C3CCNCC3)c2)cnc1N)c1c(Cl)ccc(F)c1Cl [Crizotinib] (partner 1 µM): the relative viability came to 0.997.

The assay is the same for the next values; noted with them: first compound 0.8 µM.
For the molecule `CCCCCCCCCCCC1=C(O)C(=O)C=C(O)C1=O` [Embelin] + CS(=O)(=O)N1CCN(Cc2cc3nc(-c4cccc5[nH]ncc45)nc(N4CCOCC4)c3s2)CC1 [Pictilisib] (partner 1 µM), the relative viability came to 0.37.

`CCCCCCCCCCCC1=C(O)C(=O)C=C(O)C1=O` [Embelin] + C[C@@H](Oc1cc(-c2cnn(C3CCNCC3)c2)cnc1N)c1c(Cl)ccc(F)c1Cl [Crizotinib] (partner 1 µM): the relative viability was 0.974.

The assay is the same for the next values; noted with them: first compound 2.53 µM.
`CCCCCCCCCCCC1=C(O)C(=O)C=C(O)C1=O` [Embelin] + CS(=O)(=O)N1CCN(Cc2cc3nc(-c4cccc5[nH]ncc45)nc(N4CCOCC4)c3s2)CC1 [Pictilisib] (partner 1 µM) gave a relative viability of 0.281.

`CCCCCCCCCCCC1=C(O)C(=O)C=C(O)C1=O` [Embelin] + C[C@@H](Oc1cc(-c2cnn(C3CCNCC3)c2)cnc1N)c1c(Cl)ccc(F)c1Cl [Crizotinib] (partner 1 µM) registered a relative viability of 1.19.

The assay is the same for the next values; noted with them: first compound 8 µM.
On to `CCCCCCCCCCCC1=C(O)C(=O)C=C(O)C1=O` [Embelin] + CS(=O)(=O)N1CCN(Cc2cc3nc(-c4cccc5[nH]ncc45)nc(N4CCOCC4)c3s2)CC1 [Pictilisib] (partner 1 µM), for which the relative viability was 0.333.

The molecule `CCCCCCCCCCCC1=C(O)C(=O)C=C(O)C1=O` [Embelin] + C[C@@H](Oc1cc(-c2cnn(C3CCNCC3)c2)cnc1N)c1c(Cl)ccc(F)c1Cl [Crizotinib] (partner 1 µM) returned a relative viability of 0.964.

The test system of another assay is NCI-H23. The description is as above. Particulars: first compound 0.08 µM. Put shortly: as §1
`CCCCCCCCCCCC1=C(O)C(=O)C=C(O)C1=O` [Embelin] + O=C(CCCCCCC(=O)Nc1ccccc1)NO [Vorinostat] (partner 1 µM) registered a relative viability of 0.58.

As to `CCCCCCCCCCCC1=C(O)C(=O)C=C(O)C1=O` [Embelin] + Cc1cc(Nc2cc(N3CCN(C)CC3)nc(Sc3ccc(NC(=O)C4CC4)cc3)n2)n[nH]1 [Tozasertib] (partner 0.1 µM), the relative viability was determined as 0.47.

As to `CCCCCCCCCCCC1=C(O)C(=O)C=C(O)C1=O` [Embelin] + COc1cc2c(Oc3ccc(NC(=O)C4(C(=O)Nc5ccc(F)cc5)CC4)cc3F)ccnc2cc1OCCCN1CCOCC1 [Foretinib] (partner 0.25 µM), the relative viability turned out to be 1.02.

The molecule `CCCCCCCCCCCC1=C(O)C(=O)C=C(O)C1=O` [Embelin] + CS(=O)(=O)N1CCN(Cc2cc3nc(-c4cccc5[nH]ncc45)nc(N4CCOCC4)c3s2)CC1 [Pictilisib] (partner 1 µM) displayed a relative viability of 0.51.

Molecule `CCCCCCCCCCCC1=C(O)C(=O)C=C(O)C1=O` [Embelin] + C[C@@H](Oc1cc(-c2cnn(C3CCNCC3)c2)cnc1N)c1c(Cl)ccc(F)c1Cl [Crizotinib] (partner 1 µM) displayed a relative viability of 0.554.

Still in this assay, the particulars now being: first compound 0.8 µM.
In turn, `CCCCCCCCCCCC1=C(O)C(=O)C=C(O)C1=O` [Embelin] + O=C(CCCCCCC(=O)Nc1ccccc1)NO [Vorinostat] (partner 1 µM) had a relative viability of 0.604.

`CCCCCCCCCCCC1=C(O)C(=O)C=C(O)C1=O` [Embelin] + Cc1cc(Nc2cc(N3CCN(C)CC3)nc(Sc3ccc(NC(=O)C4CC4)cc3)n2)n[nH]1 [Tozasertib] (partner 0.1 µM): the relative viability was 0.462.

Take `CCCCCCCCCCCC1=C(O)C(=O)C=C(O)C1=O` [Embelin] + COc1cc2c(Oc3ccc(NC(=O)C4(C(=O)Nc5ccc(F)cc5)CC4)cc3F)ccnc2cc1OCCCN1CCOCC1 [Foretinib] (partner 0.25 µM): the relative viability came out at 1.09.

`CCCCCCCCCCCC1=C(O)C(=O)C=C(O)C1=O` [Embelin] + CS(=O)(=O)N1CCN(Cc2cc3nc(-c4cccc5[nH]ncc45)nc(N4CCOCC4)c3s2)CC1 [Pictilisib] (partner 1 µM): the relative viability is 0.573.

`CCCCCCCCCCCC1=C(O)C(=O)C=C(O)C1=O` [Embelin] + C[C@@H](Oc1cc(-c2cnn(C3CCNCC3)c2)cnc1N)c1c(Cl)ccc(F)c1Cl [Crizotinib] (partner 1 µM): the relative viability came to 0.56.

Still in this assay, the particulars now being: first compound 2.53 µM.
In the case of `CCCCCCCCCCCC1=C(O)C(=O)C=C(O)C1=O` [Embelin] + O=C(CCCCCCC(=O)Nc1ccccc1)NO [Vorinostat] (partner 1 µM), the relative viability was 0.584.

With `CCCCCCCCCCCC1=C(O)C(=O)C=C(O)C1=O` [Embelin] + Cc1cc(Nc2cc(N3CCN(C)CC3)nc(Sc3ccc(NC(=O)C4CC4)cc3)n2)n[nH]1 [Tozasertib] (partner 0.1 µM), the relative viability worked out at 0.36.

`CCCCCCCCCCCC1=C(O)C(=O)C=C(O)C1=O` [Embelin] + COc1cc2c(Oc3ccc(NC(=O)C4(C(=O)Nc5ccc(F)cc5)CC4)cc3F)ccnc2cc1OCCCN1CCOCC1 [Foretinib] (partner 0.25 µM) yielded a relative viability of 1.07.

In turn, `CCCCCCCCCCCC1=C(O)C(=O)C=C(O)C1=O` [Embelin] + CS(=O)(=O)N1CCN(Cc2cc3nc(-c4cccc5[nH]ncc45)nc(N4CCOCC4)c3s2)CC1 [Pictilisib] (partner 1 µM) registered a relative viability of 0.475.

`CCCCCCCCCCCC1=C(O)C(=O)C=C(O)C1=O` [Embelin] + C[C@@H](Oc1cc(-c2cnn(C3CCNCC3)c2)cnc1N)c1c(Cl)ccc(F)c1Cl [Crizotinib] (partner 1 µM) yielded a relative viability of 0.55.

Still in this assay, the particulars now being: first compound 8 µM.
`CCCCCCCCCCCC1=C(O)C(=O)C=C(O)C1=O` [Embelin] + O=C(CCCCCCC(=O)Nc1ccccc1)NO [Vorinostat] (partner 1 µM) had a relative viability of 0.433.

In turn, `CCCCCCCCCCCC1=C(O)C(=O)C=C(O)C1=O` [Embelin] + Cc1cc(Nc2cc(N3CCN(C)CC3)nc(Sc3ccc(NC(=O)C4CC4)cc3)n2)n[nH]1 [Tozasertib] (partner 0.1 µM) had a relative viability of 0.34.

Molecule `CCCCCCCCCCCC1=C(O)C(=O)C=C(O)C1=O` [Embelin] + COc1cc2c(Oc3ccc(NC(=O)C4(C(=O)Nc5ccc(F)cc5)CC4)cc3F)ccnc2cc1OCCCN1CCOCC1 [Foretinib] (partner 0.25 µM) had a relative viability of 1.16.

Take `CCCCCCCCCCCC1=C(O)C(=O)C=C(O)C1=O` [Embelin] + CS(=O)(=O)N1CCN(Cc2cc3nc(-c4cccc5[nH]ncc45)nc(N4CCOCC4)c3s2)CC1 [Pictilisib] (partner 1 µM): the relative viability was 0.479.

The molecule `CCCCCCCCCCCC1=C(O)C(=O)C=C(O)C1=O` [Embelin] + C[C@@H](Oc1cc(-c2cnn(C3CCNCC3)c2)cnc1N)c1c(Cl)ccc(F)c1Cl [Crizotinib] (partner 1 µM) displayed a relative viability of 0.705.
